Data on 21 compounds can be found in PMC6052345, “Functional Analysis of the Chemosensory Protein MsepCSP8 From the Oriental Armyworm Mythimna separata” (Frontiers in Physiology, 2018).

Like-named read-outs stand apart in the source and are kept apart here.

Assay [1] deals with Mythimna separata. The assay can be described thus: Y-tube olfactometer bioassay (before RNAi). The format is in vivo. Conditions: for behavioral response in words: male and female moths; for behavioral response (attraction) of females: 3-day-old female moths; for behavioral response (attraction) of females / behavioral response (attraction) of males: 10 μl volatile vs liquid paraffin; for behavioral response (attraction) of males: 3-day-old male moths. An excerpt:
Mythimna separata behavioral responses were examined by olfactometer bioassays ([Cao et al., 2015]) performed in a glass Y-tube (base = 4.0 cm diameter by 25 cm length, arms = 3.0 cm diameter by 26 cm length) using 10 different volatile compounds (Sigma-Aldrich).
Air entering the tube was passed through activated charcoal for filtration and humidified using deionised water. Filtered air was split between two chambers; one chamber containing liquid paraffin (used as control) and the other containing the test volatile. Each chamber was connected to one arm of the Y-tube. Airflow was kept constant at 6.0 l min^-1 throughout the experiment using an inline flow meter (Gilmont Instr., Barnant Co., Barrington, IL, United States). Orange light was used for this experiment. The whole experiment was conducted in a dark room, and the relative humidity and temperature were maintained at 70 ± 5% and 25 ± 1°C, respectively. A 10 μl of volatile compound was applied to 10 mm × 10 mm filter papers (Whatman No. 1) that was placed in the chamber connected to one arm of the Y-tube. A separate Y-tube was used for male and female moths.
To perform bioassays, a 3-day-old moth, either male or female, was released in the base of the Y-tube. Each insect was given 10 min to respond to the treatment, and the number of moths showing attraction, repulsion or no response was counted. Approximately 30 min before onset of the trial, male and female adults were placed into separate glass tubes (50 ml) and covered with a cotton plug to avoid exposure to tested volatiles. In total, 60 adults (30 male and 30 female) were tested per volatile compound, and χ^2 tests were applied to evaluate the number of M. separata individuals attracted to or repelled by volatiles.

The next assay deals with MsepCSP8 (Mythimna separata, UniProt A0A1V1WC03). Kind of assay: Fluorescence competitive binding assay with 1-NPN as fluorescent probe. Conditions: for IC50: displacement of 1-NPN; for Ki: calculated from IC50; for binding affinity to MsepCSP8 in words: discussion of Table 1, pH not stated. As for the experimental part: The expressed protein was obtained in soluble form in the supernatant, and purification was accomplished using a Ni affinity chromatography column (GE Healthcare, Uppsala, Sweden). Bound protein was eluted by digestion with recombinant bovine enterokinase at 26°C for 15 h to remove the His-tag. Expression and purification were verified by 15% sodium dodecyl sulfate-polyacrylamide gel electrophoresis (SDS-PAGE), and protein concentration was measured as described by [Cao et al. (2017)]. Dialysis of purified protein was carried out in 30 mM Tris-HCl buffer [Tris(hydroxymethyl)aminomethane] at pH 7.4 and pH 5.0 before fluorescence binding assays, and protein was stored at -80°C until use.
Fluorescence competitive binding assays were performed to determine the binding affinity of MsepCSP8 for 56 ligands using N-phenyl-1-naphthylamine (1-NPN) as a fluorescent probe. Stock solutions of ligands were prepared in spectrophotometric-grade methanol. […] Mixtures of 1-NPN and protein were excited at 337 nm wavelength, and emission spectra were recorded from 360 to 600 nm using a fluorescence spectrophotometer (RF-5301PC Shimadzu, Kyoto, Japan). Binding of selected ligands with MsepCSP8 (1:1 protein:ligand stoichiometry) was evaluated using 1-NPN as a fluorescent probe, with the final concentration of the product ranging from 0 to 20 μM. […] Three independent measurements were made for all experiments. The binding affinity (Ki) of MsepCSP8 for all tested ligands was calculated based on IC50 values as follows:
Ki=IC50/(1 + [1−NPN]/K1–NPN)
where [1-NPN] is the free concentration of 1-NPN, and K1-NPN is the dissociation constant of the complex of MsepCSP8 and 1-NPN.

The subject of assay [2] is Mythimna separata. Kind of assay: Y-tube olfactometer bioassay after dsMsepCSP8 injection. The format is in vivo. Conditions: males and females, 3 days post-eclosion. As for the experimental part:
The dsRNA (500 nl of 10 ng nl^-1) was injected into 3rd and 4th abdominal segment of 7-day old pupae using a microinjector (World Precision Instruments Inc., Sarasota, FL, United States) under a microscope. After injection, pupae were kept in petri dishes until eclosion at 25 ± 1°C and 70 ± 5% relative humidity. Three treatments were set up for RNAi consisting of non-injected (controls), dsGFP-injected and dsRNA-injected (dsMsepCSP8) groups. After eclosion, adults from each treatment were kept in separate containers. Three individuals of each sex from all three treatments were taken at 1, 2, 3, 4, and 5 days post-eclosion for RNAi analysis. RT-qPCR was performed using the method described above.
Y-tube bioassays were performed both before and after RNAi application to confirm the MsepCSP8 gene silencing effect. Three treatments consisting of dsGFP-injected, dsRNA-injected (dsMsepCSP8), and controls were tested on both 3-day old male and female moths.

MsepCSP8, sequence (A0A1V1WC03 entry or part of it): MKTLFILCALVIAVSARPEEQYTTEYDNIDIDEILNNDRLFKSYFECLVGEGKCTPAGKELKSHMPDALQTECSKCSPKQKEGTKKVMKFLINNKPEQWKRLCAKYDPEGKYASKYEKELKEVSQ

For `CC1=CCC(O)(C(C)C)CC1` (single isomer, unassigned; (-)) [(–)-Terpinen-4-ol], the “behavioral response in words” value with Mythimna separata [1] is “repelled”. The IC50 – broadly, the concentration needed to halve the response being measured – at MsepCSP8 (IC50, pH 5.0) amounted to 9.46 µM; on MsepCSP8 (IC50, pH 7.4) it was 13.9 µM. For the same compound, the Ki – broadly, a dissociation constant, usually derived from enzyme kinetics or from competition with a known ligand – on MsepCSP8 (Ki, pH 5.0) was 7.06 µM; at MsepCSP8 (Ki, pH 7.4), 9.74 µM. Further, the “binding affinity to MsepCSP8 in words” value at MsepCSP8 was “high binding affinities”.
For `C=CC(O)CC` (stereo not shown) [1-Penten-3-ol], the “behavioral response in words” value in the assay on Mythimna separata [1] is on record as “distinct preference”. Also, the half-maximal inhibitory concentration (IC50) on MsepCSP8 (IC50, pH 5.0) was 22.2 µM; on MsepCSP8 (IC50, pH 7.4), 9.27 µM. Besides, the Ki is 16.6 µM on MsepCSP8 (Ki, pH 5.0) and 6.5 µM on MsepCSP8 (Ki, pH 7.4). Moreover, the “binding affinity to MsepCSP8 in words” value on MsepCSP8 is recorded as “bound strongly”.
`CCCCCCCCCCCC(C)=O` [2-Tridecanone]: the “behavioral response in words” value in the assay with Mythimna separata [1] is recorded as “non-significant attraction”. Moreover, the IC50 came to 7.75 µM on MsepCSP8 (IC50, pH 5.0) and 9.07 µM at MsepCSP8 (IC50, pH 7.4). Besides, the Ki was 5.78 µM on MsepCSP8 (Ki, pH 5.0) and 6.37 µM at MsepCSP8 (Ki, pH 7.4). Also, the “binding affinity to MsepCSP8 in words” value at MsepCSP8 was “high affinity”.
As to `OC1CCCCC1` [Cyclohexanol], in the assay with Mythimna separata [1], the “behavioral response in words” value is recorded as “distinct preference”.
For `CCCCCC=O` [Hexanal], in the assay on Mythimna separata [1], the “behavioral response (attraction) of females” value amounted to 73.33% and the “behavioral response (attraction) of males” value came out at 70%. Moreover, in the assay on Mythimna separata [2], the “behavioral responses of adults after dsMsepCSP8 injection” value is “not significantly affect”.
`CCCCCCCC=O` [Octanal]: the “behavioral response in words” value with Mythimna separata [1] was “non-significant response”. Also, the IC50 at MsepCSP8 (IC50, pH 5.0) is 13.7 µM; on MsepCSP8 (IC50, pH 7.4) it was 9.87 µM. Also, the Ki at MsepCSP8 (Ki, pH 5.0) is 10.2 µM; on MsepCSP8 (Ki, pH 7.4), 6.93 µM. The “binding affinity to MsepCSP8 in words” value at MsepCSP8 is “high affinities”.
On to `CCCCCCCCCCCCCCCCCCCCCCCCC` [Pentacosane], for which the IC50 was 11.2 µM at MsepCSP8 (IC50, pH 5.0) and 24.4 µM on MsepCSP8 (IC50, pH 7.4). The Ki at MsepCSP8 (Ki, pH 5.0) is 8.36 µM; at MsepCSP8 (Ki, pH 7.4), 17.1 µM.
On to `C=C(C)[C@H]1CC=C(C)CC1` [R-(+)-Limonene], for which the inhibition constant Ki is 14.1 µM at MsepCSP8 (pH 5.0, read-out: Ki) and 16.5 µM on MsepCSP8 (pH 7.4, read-out: Ki). Besides, the IC50 at MsepCSP8 (pH 5.0, read-out: IC50) stood at 18.9 µM; on MsepCSP8 (pH 7.4, read-out: IC50), 23.5 µM.
`CC1=CCC(=C(C)C)CC1` [Terpinolene]: the “behavioral response (attraction) of females” value in the assay with Mythimna separata [1] is reported as 80%. In the assay with Mythimna separata [1], the “behavioral response (attraction) of males” value came to 90%. Besides, the “behavioral responses of adults after dsMsepCSP8 injection” value in the assay with Mythimna separata [2] is “not significantly affect”. Moreover, the IC50 was 27 µM at MsepCSP8 (IC50, pH 5.0) and 8.82 µM at MsepCSP8 (IC50, pH 7.4). In addition, the Ki on MsepCSP8 (Ki, pH 5.0) was 20.1 µM; on MsepCSP8 (Ki, pH 7.4), 6.19 µM. On MsepCSP8, the “binding affinity to MsepCSP8 in words” value was “high binding affinities”.
For `CCCCCCCCCCCCCC` [Tetradecane], the 50% inhibitory concentration (IC50) on MsepCSP8 (IC50, pH 5.0) came to 23.8 µM; on MsepCSP8 (IC50, pH 7.4), 17.9 µM. Further, the Ki at MsepCSP8 (Ki, pH 5.0) is 17.8 µM; on MsepCSP8 (Ki, pH 7.4), 12.6 µM.
As for `CCC/C=C/CO` [Trans-2-hexen-1-ol], the IC50 is 8.46 µM on MsepCSP8 (IC50, pH 5.0) and 23.8 µM at MsepCSP8 (IC50, pH 7.4). In addition, the Ki at MsepCSP8 (Ki, pH 5.0) is 6.31 µM; at MsepCSP8 (Ki, pH 7.4), 16.7 µM. Also, the “binding affinity to MsepCSP8 in words” value at MsepCSP8 is on record as “bound strongly”.
In the case of `CCC/C=C/C=O` [Trans-2-hexenal], the “behavioral response in words” value with Mythimna separata [1] was “non-significant response”. Also, the half-inhibitory concentration (IC50) turned out to be 8.85 µM on MsepCSP8 (IC50, pH 5.0) and 12.5 µM on MsepCSP8 (IC50, pH 7.4). Also, the Ki was 6.6 µM on MsepCSP8 (Ki, pH 5.0) and 8.8 µM at MsepCSP8 (Ki, pH 7.4). Further, the “binding affinity to MsepCSP8 in words” value at MsepCSP8 is “high affinities”.
For the compound `CCCCCCCCCCCCCCCCCCCCC` [n-Heneicosane], the IC50 at MsepCSP8 (IC50, pH 5.0) amounted to 36.5 µM; at MsepCSP8 (IC50, pH 7.4), 9.59 µM. Besides, the Ki at MsepCSP8 (Ki, pH 5.0) is 27.2 µM; at MsepCSP8 (Ki, pH 7.4), 6.73 µM. In addition, the “binding affinity to MsepCSP8 in words” value at MsepCSP8 was “bound highly”.
For the compound `C/C1=C\CC/C(C)=C/CC(C)(C)/C=C/C1` [α-Humulene], the inhibition constant Ki on MsepCSP8 (pH 5.0, read-out: Ki) was 17.2 µM; on MsepCSP8 (pH 7.4, read-out: Ki), 13 µM. Also, the IC50 at MsepCSP8 (pH 5.0, read-out: IC50) stood at 23.1 µM; at MsepCSP8 (pH 7.4, read-out: IC50) it was 18.5 µM.
As for `CC1=CC[C@H](C(C)C)C=C1` [α-Phellandrene], the IC50 was […] on MsepCSP8 (IC50, pH 5.0) and […] on MsepCSP8 (IC50, pH 7.4). Also, the Ki on MsepCSP8 (Ki, pH 5.0) is […]; at MsepCSP8 (Ki, pH 7.4), […].
Regarding `CC1=CC=C(C(C)C)CC1` [α-Terpinene], in the assay with Mythimna separata [1], the “behavioral response (attraction) of females” value is on record as 70% and the “behavioral response (attraction) of males” value is 66%.
In the case of `CC(=O)/C=C/C1=C(C)CCCC1(C)C` [β-Lonone], the IC50 on MsepCSP8 (IC50, pH 5.0) is 22.8 µM; at MsepCSP8 (IC50, pH 7.4), 10.3 µM. For the same compound, the Ki at MsepCSP8 (Ki, pH 5.0) was 17 µM; on MsepCSP8 (Ki, pH 7.4), 7.22 µM. Moreover, the “binding affinity to MsepCSP8 in words” value at MsepCSP8 is on record as “high affinity”.
As for (+)-Fenchone, the Ki at MsepCSP8 (pH 5.0, read-out: Ki) is 14.9 µM; on MsepCSP8 (pH 7.4, read-out: Ki) it was 20.8 µM. The IC50 at MsepCSP8 (pH 5.0, read-out: IC50) was 20 µM; on MsepCSP8 (pH 7.4, read-out: IC50) it was 29.7 µM.
For the compound (–)-Isolongifolene, the Ki at MsepCSP8 (pH 5.0, read-out: Ki) was 46 µM; at MsepCSP8 (pH 7.4, read-out: Ki), 17.3 µM. Further, the 50% inhibitory concentration (IC50) at MsepCSP8 (pH 5.0, read-out: IC50) came to 61.6 µM; on MsepCSP8 (pH 7.4, read-out: IC50), 24.6 µM.
(–)-Limonene: the inhibition constant (Ki) was 11.2 µM on MsepCSP8 (pH 5.0, read-out: Ki) and 28.4 µM on MsepCSP8 (pH 7.4, read-out: Ki). In addition, the IC50 at MsepCSP8 (pH 5.0, read-out: IC50) was found to be 15.1 µM; on MsepCSP8 (pH 7.4, read-out: IC50) it was 40.4 µM.
On to Farnesene, for which the IC50 amounted to 20.2 µM on MsepCSP8 (pH 5.0, read-out: IC50) and 18.6 µM at MsepCSP8 (pH 7.4, read-out: IC50). Besides, the Ki at MsepCSP8 (pH 7.4, read-out: Ki) was 13.1 µM.
